{"source": "patent US5698411A", "about": "“Method for determining activity of enzymes in metabolically active whole cells” (priority 1995, dated 1997)", "type_in_all_cases": "cell-based, human", "key": {"granulocytes [1]": {"system": "granulocytes", "test": "aberrant enzyme activities in febrile children, granulocytes (Table 7)"}, "lymphocytes [2]": {"system": "lymphocytes", "test": "enzyme activity with fluorogenic substrate, normal lymphocytes (Table 3A)"}, "monocytes [3]": {"system": "monocytes", "test": "aberrant enzyme activities in febrile children, monocytes (Table 7)"}, "monocytes [4]": {"system": "monocytes", "test": "enzyme activity with fluorogenic substrate, normal monocytes (Table 3A)"}, "lymphocytes [5]": {"system": "lymphocytes", "test": "aberrant enzyme activities in febrile children, lymphocytes (Table 7)"}, "erythrocytes": {"system": "erythrocytes", "test": "enzyme activity with fluorogenic substrate, normal erythrocytes (Table 3B)"}, "granulocytes [6]": {"system": "granulocytes", "test": "enzyme activity with fluorogenic substrate, normal granulocytes (Table 3A)"}}, "data": [{"compound": "CC(=O)Oc1ccc2c(c1)Oc1cc(OC(C)=O)ccc1C21OC(=O)c2ccccc21", "note": "[FDA, fluorescein diacetate, reference compound]", "values": [{"measurement": "aberrant enzyme activity, GRANS", "setting": "granulocytes [1]; P88 Enteritis", "result": ".smallcircle."}, {"measurement": "aberrant enzyme activity, GRANS", "setting": "granulocytes [1]; P99 Viral Syndrome", "result": ".smallcircle."}, {"measurement": "aberrant enzyme activity, GRANS", "setting": "granulocytes [1]; P102 UTI", "result": ".smallcircle."}, {"measurement": "NORMAL LEUKOCYTE ENZYME ACTIVITY LYMPHS Mean", "setting": "lymphocytes [2]", "result": 13.38}, {"measurement": "aberrant enzyme activity, MONOS", "setting": "monocytes [3]; P88 Enteritis", "result": ".smallcircle."}, {"measurement": "aberrant enzyme activity, MONOS", "setting": "monocytes [3]; P99 Viral Syndrome", "result": ".smallcircle."}, {"measurement": "aberrant enzyme activity, MONOS", "setting": "monocytes [3]; P102 UTI", "result": ".smallcircle."}, {"measurement": "NORMAL LEUKOCYTE ENZYME ACTIVITY MONOS Mean", "setting": "monocytes [4]", "result": 66.25}, {"measurement": "aberrant enzyme activity, LYMPHS", "setting": "lymphocytes [5]; P88 Enteritis", "result": ".smallcircle."}, {"measurement": "aberrant enzyme activity, LYMPHS", "setting": "lymphocytes [5]; P97 Pyelonephritis", "result": ".smallcircle."}, {"measurement": "aberrant enzyme activity, LYMPHS", "setting": "lymphocytes [5]; P99 Viral Syndrome", "result": ".smallcircle."}, {"measurement": "aberrant enzyme activity, LYMPHS", "setting": "lymphocytes [5]; P102 UTI", "result": ".smallcircle."}, {"measurement": "NORMAL E[…] ACTIVITY MEAN", "setting": "erythrocytes", "result": 0.126}]}, {"compound": "O=C1OC2(c3ccc(OC4O[C@H](CO)[C@@H](O)[C@H](O)[C@H]4O)cc3Oc3cc(OC4O[C@H](CO)[C@@H](O)[C@H](O)[C@H]4O)ccc32)c2ccccc21", "note": "(some centres unmarked) [DIGLUC (FL)]", "values": [{"measurement": "NORMAL LEUKOCYTE ENZYME ACTIVITY LYMPHS Mean", "setting": "lymphocytes [2]", "result": 0.23}, {"measurement": "NORMAL LEUKOCYTE ENZYME ACTIVITY GRANS Mean", "setting": "granulocytes [6]", "result": 0.45}, {"measurement": "NORMAL E[…] ACTIVITY MEAN", "setting": "erythrocytes", "result": 0.110}]}, {"compound": "(Z-Thr--Pro)2 Rho 110 [Z-TP 8.7]", "values": [{"measurement": "aberrant enzyme activity, GRANS", "setting": "granulocytes [1]; P92 Adenitis", "result": ".smallcircle."}, {"measurement": "aberrant enzyme activity, GRANS", "setting": "granulocytes [1]; P97 Pyelonephritis", "result": ".smallcircle."}, {"measurement": "aberrant enzyme activity, GRANS", "setting": "granulocytes [1]; P103 Viral Syndrome", "result": ".smallcircle."}, {"measurement": "NORMAL LEUKOCYTE ENZYME ACTIVITY LYMPHS Mean", "setting": "lymphocytes [2]", "result": 35.01}, {"measurement": "aberrant enzyme activity, MONOS", "setting": "monocytes [3]; P92 Adenitis", "result": "- (>0.25 Decrease over normal range)"}, {"measurement": "aberrant enzyme activity, MONOS", "setting": "monocytes [3]; P97 Pyelonephritis", "result": ".smallcircle."}, {"measurement": "aberrant enzyme activity, MONOS", "setting": "monocytes [3]; P103 Viral Syndrome", "result": ".smallcircle."}, {"measurement": "NORMAL LEUKOCYTE ENZYME ACTIVITY MONOS Mean", "setting": "monocytes [4]", "result": 76.00}, {"measurement": "aberrant enzyme activity, LYMPHS", "setting": "lymphocytes [5]; P92 Adenitis", "result": "- (>0.25 Decrease over normal range)"}, {"measurement": "aberrant enzyme activity, LYMPHS", "setting": "lymphocytes [5]; P97 Pyelonephritis", "result": ".smallcircle."}, {"measurement": "aberrant enzyme activity, LYMPHS", "setting": "lymphocytes [5]; P103 Viral Syndrome", "result": ".smallcircle."}, {"measurement": "NORMAL LEUKOCYTE ENZYME ACTIVITY GRANS Mean", "setting": "granulocytes [6]", "result": 82.35}, {"measurement": "NORMAL E[…] ACTIVITY MEAN", "setting": "erythrocytes", "result": 0.161}]}]}
